Test results from the CheMixHub viscosity set.
“And” between values parts separate entries of the source, which are not always exact repeats. Equal values may be shown once.

Experiments:
[1] = xn = mol fraction of the nth substance listed; settings: 100 kPa

C=CCO
viscosity [mPa·s]
Settings | 298.15 K | 303.15 K | 313.15 K | 318.15 K | 323.15 K
101 kPa | – | 1.122 | 0.9208 | 0.8419 | 0.7703
101.33 kPa | 1.232 | – | – | – | –

CC(=O)[O-].CC[n+]1ccn(C)c1
viscosity
Settings | 293.15 K | 303.15 K | 308.15 K | 313.15 K | 318.15 K | 323.15 K
100 kPa | 203 mPa·s | 89.44 mPa·s | – | 53.45 mPa·s and 61.13 mPa·s | – | 34.58 mPa·s
101 kPa | 197 mPa·s | 93.62 mPa·s and 95.11 mPa·s and 102.4 mPa·s | 71.26 mPa·s | 57.72 mPa·s and 55.52 mPa·s and 60.42 mPa·s | 44.15 mPa·s | 35.74 mPa·s and 36.27 mPa·s and 38.97 mPa·s

CC(=O)[O-].C[NH+]1C=CN=C1
Settings | viscosity [mPa·s]
298.15 K, 100 kPa | 6.22

CC(C)C#N
101 kPa
Settings | viscosity
303.15 K | 0.461 mPa·s
308.15 K | 0.434 mPa·s and 0.433 mPa·s

CCCC(O)CC (centres undefined)
Settings | viscosity
298.15 K, 101.33 kPa | 4.34 mPa·s and 4.34 mPa·s

CCCCCCCCCCC
viscosity
Settings | 293.15 K | 298.15 K | 303.15 K | 308.15 K | 313.15 K | 318.15 K | 323.15 K
100 kPa | 1.187 mPa·s and 1.155 mPa·s | 1.074 mPa·s | 1.009 mPa·s and 0.993 mPa·s and 0.983 mPa·s | 0.935 mPa·s and 0.923 mPa·s and 0.912 mPa·s | 0.869 mPa·s and 0.861 mPa·s and 0.849 mPa·s | 0.812 mPa·s and 0.806 mPa·s and 0.792 mPa·s | 0.761 mPa·s and 0.756 mPa·s and 0.742 mPa·s
101 kPa | – | 1.075 mPa·s | – | 0.9373 mPa·s | – | 0.7937 mPa·s | –
101.33 kPa | – | 1.084 mPa·s and 1.084 mPa·s | – | – | – | – | –

CCOC(=O)CCC(=O)OCC
101.33 kPa
Settings | viscosity [mPa·s]
298.15 K | 2.466
303.15 K | 2.196
308.15 K | 1.973
313.15 K | 1.779
318.15 K | 1.615

CCn1cc[n+](C)c1.[Cl][Al-]([Cl])([Cl])[Cl+][Al-]([Cl])([Cl])[Cl]
100 kPa
Settings | viscosity [mPa·s]
293.15 K | 16.11
303.15 K | 12.41
313.15 K | 9.79
323.15 K | 7.943

CN1CCC[C@H]1c1cccnc1
viscosity
Settings | 298.15 K | 303.15 K | 308.15 K | 318.05 K | 323.15 K
100 kPa | – | 3.6 mPa·s | – | 2.5 mPa·s | 2.195 mPa·s
101 kPa | 3.894 mPa·s (2×) and 3.894 mPa·s (2×) and 3.894 mPa·s | – | 3.156 mPa·s and 3.156 mPa·s | – | –
101.33 kPa | 3.894 mPa·s (2×) and 3.891 mPa·s | – | 3.156 mPa·s | – | 2.038 mPa·s

COCC(C)OCC(C)O (centres undefined)
101.33 kPa
Settings | viscosity [mPa·s]
298.15 K | 3.691
308.15 K | 2.765
318.15 K | 2.147

N#C[C-](C#N)C#N.OCC[n+]1ccccc1
101 kPa
Settings | viscosity [mPa·s]
293.15 K | 136.6
298.15 K | 97.48
303.15 K | 71.78
308.15 K | 54.57
313.15 K | 42.31
318.15 K | 33.96
323.15 K | 27.78

NC=O
viscosity
Settings | 293.15 K | 298.15 K | 303.15 K | 308 K | 308.15 K | 313 K | 313.15 K | 318.15 K | 323.15 K
100 kPa | 3.734 mPa·s | 3.34 mPa·s | 2.964 mPa·s and 2.874 mPa·s | – | 2.612 mPa·s | – | 2.351 mPa·s | – | –
101 kPa | 3.656 mPa·s and 3.792 mPa·s | – | – | 2.648 mPa·s | – | 2.273 mPa·s | – | – | 2.01 mPa·s and 1.905 mPa·s and 1.966 mPa·s
101.3 kPa | – | 3.393 mPa·s | 2.8 mPa·s | – | 2.5 mPa·s | – | 2.2 mPa·s | – | 1.6 mPa·s
101.33 kPa | – | 3.217 mPa·s | 2.802 mPa·s and 2.84 mPa·s | – | 2.498 mPa·s and 2.59 mPa·s | – | 2.243 mPa·s | 2.032 mPa·s | 1.846 mPa·s

OCCCO
viscosity
Settings | 293.15 K | 298.15 K | 303.15 K | 308.15 K | 313.15 K | 318.15 K | 323.15 K
100 kPa | 54.53 mPa·s (2×) and 53.1 mPa·s and 52.75 mPa·s | 42.89 mPa·s (2×) and 41.2 mPa·s | 34.62 mPa·s (2×) and 33.4 mPa·s and 32.51 mPa·s | 27.06 mPa·s | 21.85 mPa·s | 19.93 mPa·s | –
101 kPa | – | 42.1 mPa·s and 42.06 mPa·s | 33.7 mPa·s | – | 22.1 mPa·s and 20.29 mPa·s | 18.8 mPa·s and 16.88 mPa·s | 14.16 mPa·s
101.3 kPa | – | 41.77 mPa·s | 33.35 mPa·s | – | 22.39 mPa·s | 18.61 mPa·s | 15.66 mPa·s

OCCCl
viscosity
Settings | 293.15 K | 298.15 K | 303.15 K | 308.15 K | 313.15 K
100 kPa | – | – | – | 2.234 mPa·s | 1.882 mPa·s
101.3 kPa | – | 2.973 mPa·s | 2.611 mPa·s | – | –
101.33 kPa | 3.588 mPa·s | 2.81 mPa·s and 2.985 mPa·s | 2.624 mPa·s and 2.448 mPa·s | 2.15 mPa·s | –

CN1CCC[C@H]1c1cccnc1 + OCCCO
[1]
Settings | viscosity [mPa·s]
293.15 K, x1 = 0.5 | 33.15
293.15 K, x1 = 0.6004 | 22.75
293.15 K, x1 = 0.8 | 9.805
298.15 K, x1 = 0.8 | 8.105
303.15 K, x1 = 0.6004 | 13.95
308.15 K, x1 = 0.7 | 7.885
313.15 K, x1 = 0.9 | 3.625
323.15 K, x1 = 0.3 | 13.05
